# Test results from patent US11560582B2, “Fusion moieties and microbial hosts for protein production” (priority 2018, dated 2023).
# B1: AsPoIII: DNA polymerase II from Aliivibrio salmonicida (SEQ ID NO: 38), His-tagged, expressed in A. wodanis (protein, listed as Aliivibrio salmonicida)
# chain: LNSPHCGFLLTRQNKDIRDHSLVDLWVKCDDHIAHLLIENELAVIFFLKERQAEYESILTNAHIHYSIKSTSLHTFQHQPVFGLYFSSTQQKRVATALFEDHQLPTFEGDIRLADRYLMERFICGGMAFVGTPRQRKGYVEYRDVKIKSAEMTPEFSVVSLDVECSEKGILYSVALHCERDTRIIMVGPEETSDLPIEWVENEKALLLALESWFQTFDPDIIIGWNVINFDFNLLIKRAKWHNLAFRLGRGNSSLYFRESNKNRQQGFLSFPGRVVLDGIDALKTATYHFSSWSLESVSQELLNEGKSIHDPSDRMGEINRMYREDKCALAKYNLQDCVLVTRIFELTHLLEFVIERTKLTGIELDRVGGSVAAFTNLYLPRLHRAGYIAPNLESENWIASPGGYVMSSKPGLYESVLVLDFKSLYPSIIKTFRIDPLGLVEGLKLESGIDDGQAIEGFRGGRFHRTKHFLPNLIETLWSARDVAKKNNEKAFSQAIKIIMNSFYGVLGSSGCRFFDHRLASSITMRGHEIMKTTRELIESQGYEVIYGDTDSTFVTLGESMPSDEADKIGKQLVDHINQWWTAHLESEYAIDSALEIEYETHYRIFLMPTIRGSEMGSKKRYAGLIRKGDKEEIIFKGLETVRTDWTPLSQEFQKVLFDKVFHQQAVEEYVREYVDKTKSGEFDNKLIYRKRLRRQLDEYQKNVPPHVKAARIADTQNQKLGKPLMYQQGGWIEYIITTAGPEPIEYRQNPIDYDHYVEKQLKPIAEGILPFVNLSFTELSASQLGLF
# modifications: 6xHis tag
# B2: AsExoI: Exonuclease I from Aliivibrio salmonicida (SEQ ID NO: 37), His-tagged, expressed in A. wodanis (protein, listed as Aliivibrio salmonicida)
# chain: MPQDNAPSFFFFDYETWGTSPSLDRPCQFAGVRTDEDFNIIGEPLVIYCRPPIDYLPSPEACLITGITPQMAVSKGLSEPEFIAQIHNELSKPNTCSLGYNNIRFDDEVSRYTLYRNFFEPYGWSWQNGNSRWDLLDVMRAVYALRPEGIEWPKDEEGKPSFRLEKLSQANGIEHENAHDAMADVIATIELAKVVKKAQPKMFNYLLSMRHKKKAATLIDIIEMTPLMHVSGMFGVDRGNISWIVPVAWHPTNNNAVITIDLALDPAVFLELDAEQLHQRMYTKRSELGPDELPVPVKLVHLNKCPILAPAKTLTAENAIALNVDREACLRNLKVIRENPEIRQKLIDLYNIEPGYEKSSNVDTLLYDGFFSHADKTAIDMIRQSTPEQLIDFEPNVSDPRIKPLLFRYRARNFPHTLNESEQLRWQAHLQDYFETHMSDYETRFESLYLESEGNEKKTAILRAVYNYVQQLVS
# modifications: 6xHis tag
# What was measured:
# A. wodanis strains [1] = conditions: have been reported; cited from earlier work
# [2] = test system: A. wodanis strain 06/09/178 (29); experiment: Antibiotic susceptibility testing on LB plates; format: cell-based, Aliivibrio wodanis; conditions: 12° C. for 2 days
# Experimental: (§1) Antibiotic susceptibility testing was done by streaking A. wodanis cells onto LB plates supplemented with 2.5% NaCl and one of the following antibiotics: Chloramphenicol (2 μg/mL, Tetracycline (10 μg/mL), Carbenicillin (100 or 200 μg/mL) or Kanamycin (50 or 100 μg/mL). A. wodanis was regarded as susceptible (score=0) if no growth was detected, as intermediate susceptible (score=0.5) if poor growth was detected, or as resistant (score=1) if good growth was detected. The tested concentrations of antibiotics were similar to the recommended working concentrations for E. coli, except Chloramphenicol that was tested at 2 μg/mL (instead of 25 μg/mL). If the test scored as “resistant”, then the test was redone using 2× of the recommended concentration. All A. wodanis strains were streaked onto same agar plate and grown at 12° C. for 2 days.
# [3] = test system: A. wodanis strain 90/09/325 (5); experiment: Antibiotic susceptibility testing on LB plates; format: cell-based, Aliivibrio wodanis; conditions: 12° C. for 2 days
# Experimental: as §1
# [4] = test system: A. wodanis strain 04/60/17347 (35); experiment: Antibiotic susceptibility testing on LB plates; format: cell-based, Aliivibrio wodanis; conditions: 12° C. for 2 days
# Experimental: as §1
# [5] = test system: A. wodanis strain 06/09/170 (27); experiment: Antibiotic susceptibility testing on LB plates; format: cell-based, Aliivibrio wodanis; conditions: 12° C. for 2 days
# Experimental: as §1
# [6] = test system: A. wodanis strain 01/09/401 (11); experiment: Antibiotic susceptibility testing on LB plates; format: cell-based, Aliivibrio wodanis; conditions: 12° C. for 2 days
# Experimental: as §1
# [7] = test system: A. wodanis strain 02/09/569 (7); experiment: Antibiotic susceptibility testing on LB plates; format: cell-based, Aliivibrio wodanis; conditions: 12° C. for 2 days
# Experimental: as §1
# [8] = test system: A. wodanis strain 03/09/160 (37); experiment: Antibiotic susceptibility testing on LB plates; format: cell-based, Aliivibrio wodanis; conditions: 12° C. for 2 days
# Experimental: as §1
# [9] = test system: A. wodanis strain 88/09/441 (12) (T); experiment: Antibiotic susceptibility testing on LB plates; format: cell-based, Aliivibrio wodanis; conditions: 12° C. for 2 days
# Experimental: as §1
# [10] = test system: A. wodanis strain 02/09/382 (8); experiment: Antibiotic susceptibility testing on LB plates; format: cell-based, Aliivibrio wodanis; conditions: 12° C. for 2 days
# Experimental: as §1
# [11] = test system: A. wodanis strain 89/09/5532 (1); experiment: Antibiotic susceptibility testing on LB plates; format: cell-based, Aliivibrio wodanis; conditions: 12° C. for 2 days
# Experimental: as §1
# [12] = test system: A. wodanis strain K7F1 150913; format: cell-based, Aliivibrio wodanis; conditions: 12° C. for 2 days
# Experimental: as §1
# A. wodanis strains [13] = experiment: Antibiotic resistance test, summary for all strains; format: cell-based, Aliivibrio wodanis; conditions: the twelve strains used in this study
# Experimental: Next, we tested for resistance to antibiotics, four of which are commonly used in biotechnological applications, namely carbenicillin, kanamycin, tetracycline and chloramphenicol.
# as §1
# molecular beacon probe = experiment: DNA polymerase molecular beacon activity assay; format: biochemical; conditions: affinity purified enzyme expressed in A. wodanis 03/09/160; increasing enzyme
# Source text: Activity assay for AsPoIII is based on a molecular beacon probe (5″-GGCCCGT^Dabcyl[…]^FAMACGGGCCGTCAAGTT CATG […]-3′ (SEQ ID NO:46)) (modified from Summerer, 2008). The molecular beacon probe consists of a 23mer loop that is connected by a GC-rich 8mer stem region (the 8-mer stem region consists of two 8 nucleotide sequences-sequences are indicated in italics) and a 43mer extension. The fluorophores Dabcyl and FAM are attached to the indicated “T” nucleotides. Due to the loop formation the fluorophores Dabcyl and FAM are in close proximity and thus quenched. Upon extension by the DNA polymerase I of the primer (5″-GTGGTGCGAAATTTCTGAC-3′ (SEQ ID NO:47)) that is annealed to the molecular beacon template the stem is opened and the increase in distance of the two fluorophores is measured by the restoration of FAM fluorescence (excitation 485 nm, emission 518 nm). Assay was monitored in 50 μL reactions containing 0.2 μM substrate (molecular beacon) mixed with 0.2 mM dNTP in 1× reaction buffer (250 mM Tris-HCl, pH 8.5, 250 mM, KCl, 25 mM MgCl2) and 1×DB (1 mg/ml BSA, 5 mM DTT, 10% glycerol). The mixture was first incubated at 25° C. for 5 min, and the reaction was started by adding the purified enzyme. Increase in fluorescence was measured (excitation 485 nm, emission 518 nm) for 15 min with 10 sec intervals (total of 91 reads). […]
# [14] = test system: ssDNA "molecular beacon" substrate; experiment: Exonuclease I molecular beacon activity assay; format: biochemical; conditions: affinity purified enzyme expressed in A. wodanis 03/09/160; increasing enzyme
# Experimental: The two enzyme activity assays used in this work are both based on so-called “molecular beacons”. Each “molecular beacon” consists of a hairpin shaped DNA oligonucleotide with an internally quenched fluorophore (in this case FAM). TAMRA was used as the FAM quencher. Enzyme activity of affinity purified AsExoI and MvExoI were tested in 50 μL reactions containing the following: 0.2 μM ssDNA “molecular beacon” substrate (5′-FAM-CGCCATCGGAGGTTC-TAMRA-3′ (SEQ ID NO:45)), 50 mM Tris pH 8.5, 30 mM MgCl2, 1 mM DTT, 0.2 mg/ml BSA, 2% glycerol and 8.5 nM enzyme (Exonuclease I). The reaction was carried out in a black 96-well fluorescence assay plate (Corning®), and increase in FAM fluorescence (excitation at 485 nm, emission at 518 nm) was measured as relative fluorescence units (RFU) at appropriate time intervals for 40 min.
molecule,measurement,setting,value
Cc1cc(NS(=O)(=O)c2ccc(N)cc2)no1 [sulfamethoxazole],Resistance of A. wodanis strains (reported),A. wodanis strains [1],Resistance
"NC[C@H]1O[C@H](O[C@H]2[C@H](O)[C@@H](O[C@H]3O[C@H](CO)[C@@H](O)[C@H](N)[C@H]3O)[C@H](N)C[C@@H]2N)[C@H](O)[C@@H](O)[C@@H]1O [KAN, Kanamycin]",Antibiotics resistance KAN 50 μg/mL,[2]; 50 μg/mL,1
same,Antibiotics resistance KAN 100 μg/mL,[2]; 100 μg/mL,0.5
same,Antibiotics resistance KAN 50 μg/mL,[3]; 50 μg/mL,1
same,Antibiotics resistance KAN 100 μg/mL,[3]; 100 μg/mL,0.5
same,Antibiotics resistance KAN 50 μg/mL,[4]; 50 μg/mL,1
same,Antibiotics resistance KAN 100 μg/mL,[4]; 100 μg/mL,0.5
same,Antibiotics resistance KAN 50 μg/mL,[5]; 50 μg/mL,0.5
same,Antibiotics resistance KAN 100 μg/mL,[5]; 100 μg/mL,0.5
same,Antibiotics resistance KAN 50 μg/mL,[6]; 50 μg/mL,1
same,Antibiotics resistance KAN 100 μg/mL,[6]; 100 μg/mL,0.5
same,Antibiotics resistance KAN 50 μg/mL,[7]; 50 μg/mL,1
same,Antibiotics resistance KAN 100 μg/mL,[7]; 100 μg/mL,0.5
same,Antibiotics resistance KAN 50 μg/mL,[8]; 50 μg/mL,1
same,Antibiotics resistance KAN 100 μg/mL,[8]; 100 μg/mL,0.5
same,Antibiotics resistance KAN 50 μg/mL,[9]; 50 μg/mL,1
same,Antibiotics resistance KAN 100 μg/mL,[9]; 100 μg/mL,0.5
same,Antibiotics resistance KAN 50 μg/mL,[10]; 50 μg/mL,1
same,Antibiotics resistance KAN 100 μg/mL,[10]; 100 μg/mL,0.5
same,Antibiotics resistance KAN 50 μg/mL,[11]; 50 μg/mL,1
same,Antibiotics resistance KAN 100 μg/mL,[11]; 100 μg/mL,0.5
same,Antibiotics resistance KAN 50 μg/mL,[12]; 50 μg/mL,1
same,Antibiotics resistance KAN 100 μg/mL,[12]; 100 μg/mL,0.5
"O=C(N[C@H](CO)[C@H](O)c1ccc([N+](=O)[O-])cc1)C(Cl)Cl [CHL, chloramphenicol]",Antibiotics resistance CHL 2 μg/mL,[2]; 2 μg/mL,0
same,Antibiotics resistance CHL 2 μg/mL,[3]; 2 μg/mL,0
same,Antibiotics resistance CHL 2 μg/mL,[4]; 2 μg/mL,0
same,Antibiotics resistance CHL 2 μg/mL,[5]; 2 μg/mL,0
same,Antibiotics resistance CHL 2 μg/mL,[6]; 2 μg/mL,0
same,Antibiotics resistance CHL 2 μg/mL,[7]; 2 μg/mL,0
same,Antibiotics resistance CHL 2 μg/mL,[8]; 2 μg/mL,0
same,Antibiotics resistance CHL 2 μg/mL,[9]; 2 μg/mL,0
same,Antibiotics resistance CHL 2 μg/mL,[10]; 2 μg/mL,0
same,Antibiotics resistance CHL 2 μg/mL,[11]; 2 μg/mL,0
same,sensitivity / resistance to antibiotics,A. wodanis strains [13],sensitive
same,Antibiotics resistance CHL 2 μg/mL,[12]; 2 μg/mL,0
B1,"DNA polymerase activity (FAM fluorescence, RFU)",molecular beacon probe,dose-dependent
B2,"exonuclease activity (FAM fluorescence, RFU)",[14],dose-dependent
